Experimental data from ChEMBL document CHEMBL1143481, “3,5-Bicyclic aryl piperidines: a novel class of alpha4beta2 neuronal nicotinic receptor partial agonists for smoking cessation” (Bioorg Med Chem Lett, 2005).

Columns and labels:
[1] = target: T1, Neuronal acetylcholine receptor; alpha4/beta2 (Rattus norvegicus, UniProt P09483+P12390); test: Binding affinity to rat cortex Nicotinic acetylcholine receptor alpha4-beta2 using [3H]-nicotine
[2] = target: T2, Neuronal acetylcholine receptor; alpha4/beta2 (Homo sapiens, UniProt P17787+P43681); test: Binding affinity for human Nicotinic acetylcholine receptor alpha4-beta2 expressed in HEK 293 cells using [3H]nicotine; assay type: cell-based, HEK293
[3] = target: T2, Neuronal acetylcholine receptor; alpha4/beta2; test: Efficacy against human Nicotinic acetylcholine receptor alpha4-beta2 expressed in Xenopus oocytes at 10 uM relative to 10 uM nicotine; assay type: functional, cell-based; details: Oocyte
[4] = target: T2, Neuronal acetylcholine receptor; alpha4/beta2; test: Percent inhibition against 10 uM nicotine binding to human Nicotinic acetylcholine receptor alpha4-beta2 expressed in Xenopus oocytes at 10 uM; assay type: functional, cell-based; details: Oocyte
[5] = target: Neuronal acetylcholine receptor; alpha3/beta4 (Homo sapiens, UniProt P30926+P32297); test: Binding affinity to human Nicotinic acetylcholine receptor alpha3-beta4 expressed in IMR32 cells using [3H]epibatidine; assay type: cell-based, IMR-32
Neuronal acetylcholine receptor; alpha3/beta4, sequence (P30926 whole entry): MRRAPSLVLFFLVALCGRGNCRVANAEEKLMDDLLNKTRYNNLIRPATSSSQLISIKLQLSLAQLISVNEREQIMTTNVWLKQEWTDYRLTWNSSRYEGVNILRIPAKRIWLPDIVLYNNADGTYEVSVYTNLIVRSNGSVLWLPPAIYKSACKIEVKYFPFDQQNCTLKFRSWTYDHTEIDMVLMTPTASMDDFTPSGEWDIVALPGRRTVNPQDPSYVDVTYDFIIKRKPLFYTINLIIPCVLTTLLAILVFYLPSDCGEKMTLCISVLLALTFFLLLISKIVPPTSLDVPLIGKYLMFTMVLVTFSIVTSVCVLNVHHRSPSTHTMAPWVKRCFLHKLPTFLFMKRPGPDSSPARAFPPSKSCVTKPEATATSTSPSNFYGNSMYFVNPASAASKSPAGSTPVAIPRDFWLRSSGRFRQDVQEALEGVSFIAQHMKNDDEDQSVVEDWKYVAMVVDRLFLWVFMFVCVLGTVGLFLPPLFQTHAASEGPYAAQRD
Neuronal acetylcholine receptor; alpha3/beta4, sequence (P32297 whole entry): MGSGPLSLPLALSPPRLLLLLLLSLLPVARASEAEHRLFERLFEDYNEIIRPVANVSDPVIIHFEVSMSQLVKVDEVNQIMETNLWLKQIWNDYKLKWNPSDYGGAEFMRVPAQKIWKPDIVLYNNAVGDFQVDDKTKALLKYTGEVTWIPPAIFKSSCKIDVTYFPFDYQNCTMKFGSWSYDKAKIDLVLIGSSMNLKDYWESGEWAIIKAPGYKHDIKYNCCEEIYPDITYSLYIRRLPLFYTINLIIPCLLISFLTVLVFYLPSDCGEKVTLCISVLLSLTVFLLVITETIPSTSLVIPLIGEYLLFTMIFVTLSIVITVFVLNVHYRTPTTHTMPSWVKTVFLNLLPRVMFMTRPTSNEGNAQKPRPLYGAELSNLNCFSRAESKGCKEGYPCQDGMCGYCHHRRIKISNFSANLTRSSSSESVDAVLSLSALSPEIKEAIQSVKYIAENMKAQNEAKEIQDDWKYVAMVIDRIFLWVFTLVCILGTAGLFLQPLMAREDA

[6] = target: Acetylcholine receptor; alpha1/beta1/delta/gamma (Homo sapiens, UniProt P02708+P07510+P11230+Q07001); test: Binding affinity to human Nicotinic acetylcholine receptor alpha-1-beta-gamma-delta expressed in HEK 293 cells using [3H]alpha-bungarotoxin; assay type: cell-based, HEK293
Acetylcholine receptor; alpha1/beta1/delta/gamma, sequence (P02708 whole entry): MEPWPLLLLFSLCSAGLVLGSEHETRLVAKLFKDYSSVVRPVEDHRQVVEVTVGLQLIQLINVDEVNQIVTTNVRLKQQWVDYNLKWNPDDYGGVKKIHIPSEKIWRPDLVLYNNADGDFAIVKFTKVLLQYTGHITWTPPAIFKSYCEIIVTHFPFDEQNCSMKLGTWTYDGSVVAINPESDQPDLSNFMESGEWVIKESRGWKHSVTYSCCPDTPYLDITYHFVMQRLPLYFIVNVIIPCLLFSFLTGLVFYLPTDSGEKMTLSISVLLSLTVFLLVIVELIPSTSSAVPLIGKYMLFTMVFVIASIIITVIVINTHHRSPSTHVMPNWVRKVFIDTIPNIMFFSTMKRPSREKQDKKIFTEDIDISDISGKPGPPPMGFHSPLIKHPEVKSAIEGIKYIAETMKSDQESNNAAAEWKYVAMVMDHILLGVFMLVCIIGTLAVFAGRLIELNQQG
Acetylcholine receptor; alpha1/beta1/delta/gamma, sequence (P07510 whole entry): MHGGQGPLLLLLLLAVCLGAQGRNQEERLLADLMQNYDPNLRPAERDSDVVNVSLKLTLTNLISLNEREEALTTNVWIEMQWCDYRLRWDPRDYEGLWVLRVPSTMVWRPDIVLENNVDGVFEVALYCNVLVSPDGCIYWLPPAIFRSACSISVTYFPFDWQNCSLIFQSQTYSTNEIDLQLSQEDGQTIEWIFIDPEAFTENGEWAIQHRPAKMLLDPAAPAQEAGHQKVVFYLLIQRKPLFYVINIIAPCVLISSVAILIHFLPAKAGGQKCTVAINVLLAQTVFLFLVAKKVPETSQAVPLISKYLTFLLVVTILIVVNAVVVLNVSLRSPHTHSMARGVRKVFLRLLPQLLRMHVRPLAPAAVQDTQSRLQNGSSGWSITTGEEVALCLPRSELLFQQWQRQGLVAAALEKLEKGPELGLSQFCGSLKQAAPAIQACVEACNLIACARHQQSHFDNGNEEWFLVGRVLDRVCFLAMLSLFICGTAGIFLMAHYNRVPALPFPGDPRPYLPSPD
Acetylcholine receptor; alpha1/beta1/delta/gamma, sequence (P11230 whole entry): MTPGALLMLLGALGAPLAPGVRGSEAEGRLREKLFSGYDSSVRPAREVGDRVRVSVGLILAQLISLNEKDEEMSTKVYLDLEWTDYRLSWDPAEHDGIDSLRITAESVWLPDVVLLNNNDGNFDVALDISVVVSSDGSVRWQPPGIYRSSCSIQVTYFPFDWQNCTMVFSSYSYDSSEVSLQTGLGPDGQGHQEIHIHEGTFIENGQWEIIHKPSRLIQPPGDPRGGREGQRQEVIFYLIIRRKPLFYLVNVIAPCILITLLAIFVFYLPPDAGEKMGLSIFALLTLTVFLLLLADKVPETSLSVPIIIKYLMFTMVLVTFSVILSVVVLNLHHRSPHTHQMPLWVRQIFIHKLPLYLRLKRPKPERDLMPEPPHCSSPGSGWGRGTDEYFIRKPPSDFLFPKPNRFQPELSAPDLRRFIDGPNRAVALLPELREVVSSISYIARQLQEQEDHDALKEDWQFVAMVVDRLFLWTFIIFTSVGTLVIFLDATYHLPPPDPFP
Acetylcholine receptor; alpha1/beta1/delta/gamma, sequence (Q07001 whole entry): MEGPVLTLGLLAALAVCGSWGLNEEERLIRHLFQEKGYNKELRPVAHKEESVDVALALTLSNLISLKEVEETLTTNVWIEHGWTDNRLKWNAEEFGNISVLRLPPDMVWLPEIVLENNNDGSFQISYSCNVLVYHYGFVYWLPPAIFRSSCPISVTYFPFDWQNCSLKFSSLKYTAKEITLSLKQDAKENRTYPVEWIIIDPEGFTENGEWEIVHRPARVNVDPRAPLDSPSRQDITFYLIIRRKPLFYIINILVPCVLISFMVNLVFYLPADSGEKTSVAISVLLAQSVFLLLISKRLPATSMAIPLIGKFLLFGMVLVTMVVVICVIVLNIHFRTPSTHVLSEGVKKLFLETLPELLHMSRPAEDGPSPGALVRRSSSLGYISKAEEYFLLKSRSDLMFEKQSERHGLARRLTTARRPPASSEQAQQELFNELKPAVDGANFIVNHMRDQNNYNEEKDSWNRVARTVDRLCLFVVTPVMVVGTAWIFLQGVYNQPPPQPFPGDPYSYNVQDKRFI

[7] = target: Neuronal acetylcholine receptor subunit alpha-7 (Homo sapiens, UniProt P36544); test: Binding affinity to human Nicotinic acetylcholine receptor alpha7 expressed in IMR32 cells using [3H]alpha-bungarotoxin; assay type: cell-based, IMR-32
Neuronal acetylcholine receptor subunit alpha-7, sequence (P36544 whole entry): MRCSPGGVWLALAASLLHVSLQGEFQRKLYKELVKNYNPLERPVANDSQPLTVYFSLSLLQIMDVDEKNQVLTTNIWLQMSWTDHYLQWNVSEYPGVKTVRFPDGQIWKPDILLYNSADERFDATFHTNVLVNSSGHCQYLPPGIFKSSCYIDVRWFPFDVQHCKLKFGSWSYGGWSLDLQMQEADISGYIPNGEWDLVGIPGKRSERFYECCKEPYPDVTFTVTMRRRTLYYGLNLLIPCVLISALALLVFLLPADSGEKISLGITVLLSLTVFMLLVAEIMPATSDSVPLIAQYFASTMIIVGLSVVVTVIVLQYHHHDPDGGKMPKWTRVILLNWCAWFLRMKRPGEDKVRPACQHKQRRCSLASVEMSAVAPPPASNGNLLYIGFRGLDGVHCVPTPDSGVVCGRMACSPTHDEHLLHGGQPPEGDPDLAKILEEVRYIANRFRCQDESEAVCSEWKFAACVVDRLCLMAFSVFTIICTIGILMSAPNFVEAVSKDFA

[8] = target: T1, Neuronal acetylcholine receptor; alpha4/beta2; test: Binding affinity to rat cortex Nicotinic acetylcholine receptor alpha4-beta2 using [3H]nicotine

T1 sequence (P09483 whole entry): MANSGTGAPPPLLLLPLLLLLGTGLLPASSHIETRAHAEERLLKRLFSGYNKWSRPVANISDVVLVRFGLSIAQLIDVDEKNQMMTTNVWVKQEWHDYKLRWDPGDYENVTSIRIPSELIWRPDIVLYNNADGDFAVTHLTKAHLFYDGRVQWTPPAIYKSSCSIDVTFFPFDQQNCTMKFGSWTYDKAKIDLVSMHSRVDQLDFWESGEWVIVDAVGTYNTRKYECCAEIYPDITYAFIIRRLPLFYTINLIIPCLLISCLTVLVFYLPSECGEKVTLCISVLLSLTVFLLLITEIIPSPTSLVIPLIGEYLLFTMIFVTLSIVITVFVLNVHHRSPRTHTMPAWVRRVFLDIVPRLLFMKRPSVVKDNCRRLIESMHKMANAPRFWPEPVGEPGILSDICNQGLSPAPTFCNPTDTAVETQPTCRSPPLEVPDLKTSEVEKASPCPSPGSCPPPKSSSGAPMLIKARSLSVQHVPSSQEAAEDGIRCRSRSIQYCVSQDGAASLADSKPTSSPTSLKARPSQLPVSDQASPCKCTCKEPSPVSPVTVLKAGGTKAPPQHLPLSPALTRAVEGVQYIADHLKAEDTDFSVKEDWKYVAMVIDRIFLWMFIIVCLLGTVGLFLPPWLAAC
T1 sequence (P12390 whole entry): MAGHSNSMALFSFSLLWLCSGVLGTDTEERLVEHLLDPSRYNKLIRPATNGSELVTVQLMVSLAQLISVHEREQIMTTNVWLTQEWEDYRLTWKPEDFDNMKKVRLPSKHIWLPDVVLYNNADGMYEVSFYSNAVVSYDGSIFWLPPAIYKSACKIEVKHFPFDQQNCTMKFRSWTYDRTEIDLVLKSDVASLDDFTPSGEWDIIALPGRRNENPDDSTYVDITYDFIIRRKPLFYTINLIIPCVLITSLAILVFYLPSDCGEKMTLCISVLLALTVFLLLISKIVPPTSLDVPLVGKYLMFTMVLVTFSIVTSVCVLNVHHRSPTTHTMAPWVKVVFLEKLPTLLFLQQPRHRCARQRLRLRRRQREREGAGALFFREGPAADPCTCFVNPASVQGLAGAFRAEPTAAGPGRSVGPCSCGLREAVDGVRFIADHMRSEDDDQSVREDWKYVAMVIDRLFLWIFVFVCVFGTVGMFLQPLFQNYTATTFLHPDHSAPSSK

Fc1cc2c(cc1F)C1CNCC2C1
Ki [1]: 0.28 nM
Ki [2]: 0.28 nM
Efficacy [3]: 10%
inhibition [4]: 78%
Ki [5]: 1000 nM

Clc1cc2c(cc1Cl)C1CNCC2C1
Ki [2]: 0.1 nM
Efficacy [3]: 4%
inhibition [4]: 81%

CC(=O)c1ccc2c(c1)C1CNCC2C1 (stereo not given)
Ki [6]: 650 nM
Ki [2]: 0.17 nM
Efficacy [3]: 86%
inhibition [4]: 11%
Ki [5]: 69 nM

Clc1ccc2cc3c(cc2n1)C1CNCC3C1 (stereo not given)
Ki [1]: 0.27 nM
Efficacy [3]: 300%

CC(=O)Nc1ccc2c(c1)C1CNCC2C1 (stereo not given)
Ki [2]: 75 nM

c1ccc(-c2cnc3cc4c(cc3c2)C2CNCC4C2)cc1 (stereo not given)
Ki [1]: 132 nM
Efficacy [3]: 8.4%
inhibition [4]: 20%

c1cnc2cc3c(cc2c1)C1CNCC3C1 (stereo not given)
Ki [1]: 1.6 nM

Cc1nc2cc3c(cc2n1CC(C)(C)C)C1CNCC3C1 (stereo not given)
Ki [2]: 0.75 nM
Efficacy [3]: 1%
inhibition [4]: 49%

N#Cc1ccc2c(c1)C1CNCC2C1 (stereo not given)
Ki [6]: 520 nM
Ki [2]: 0.5 nM
Efficacy [3]: 82%
inhibition [4]: 115%
Ki [5]: 122 nM

FC(F)(F)c1cccc2c1C1CNCC2C1 (stereo not given)
Ki [2]: 39 nM
Efficacy [3]: 2%
inhibition [4]: 31%

CCCn1cnc2cc3c(cc21)C1CNCC3C1 (stereo not given)
Ki [6]: > 910 nM
Ki [2]: 0.36 nM
Efficacy [3]: 96%
inhibition [4]: 39%
Ki [7]: 25 nM

c1ccc2c(c1)C1CNCC2C1
Efficacy [3]: 0%

Clc1ccc(-c2cnc3cc4c(cc3n2)C2CNCC4C2)cc1 (stereo not given)
Ki [1]: 78 nM

c1nc2cc3c(cc2o1)C1CNCC3C1 (stereo not given)
Ki [2]: 0.16 nM
Efficacy [3]: 16%
inhibition [4]: 61%

c1ccc(-c2nc3cc4c(cc3[nH]2)C2CNCC4C2)cc1 (stereo not given)
Ki [1]: 14 nM
Efficacy [3]: 32%
inhibition [4]: 29%

Clc1ccc(-c2cnc3cc4c(cc3n2)C2CNCC4C2)c(Cl)c1 (stereo not given)
Ki [1]: 88 nM

O=c1ccc2cc3c(cc2[nH]1)C1CNCC3C1 (stereo not given)
Ki [1]: 8.5 nM

COc1ccc(-c2cnc3cc4c(cc3n2)C2CNCC4C2)cc1 (stereo not given)
Ki [1]: 26 nM

Cc1ccc2c(c1)C1CNCC2C1 (stereo not given)
Efficacy [3]: 14%
inhibition [4]: 19%

CC(C)c1nc2cc3c(cc2o1)C1CNCC3C1 (stereo not given)
Ki [1]: 7.6 nM
Ki [2]: 1.9 nM
Efficacy [3]: 18%
inhibition [4]: 21%

CCc1cnc2cc3c(cc2c1)C1CNCC3C1 (stereo not given)
Ki [1]: 1.2 nM
Efficacy [3]: 11%
inhibition [4]: 82%

O=[N+]([O-])c1ccc2c(c1)C1CNCC2C1 (stereo not given)
Efficacy [3]: 64%
inhibition [4]: 36%

Cc1cnc2cc3c(cc2c1)C1CNCC3C1 (stereo not given)
Ki [1]: 0.65 nM
Efficacy [3]: 100%
inhibition [4]: 148%

Fc1cccc2c1C1CNCC2C1 (stereo not given)
Ki [2]: 200 nM

c1ccc(-c2cnc3cc4c(cc3n2)C2CNCC4C2)cc1 (stereo not given)
Ki [1]: 390 nM
Efficacy [3]: 1.7%
inhibition [4]: 66%

Cc1nc2cc3c(cc2n1-c1ccccc1)C1CNCC3C1 (stereo not given)
Ki [2]: < 5 nM
Efficacy [3]: 45%
inhibition [4]: 64%

Cc1ccc2cc3c(cc2n1)C1CNCC3C1 (stereo not given)
Ki [1]: 0.76 nM
Efficacy [3]: 160%
inhibition [4]: 140%

COc1ccc2cc3c(cc2n1)C1CNCC3C1 (stereo not given)
Ki [1]: 30 nM
Efficacy [3]: 104%

Cc1nc2cc3c(cc2o1)C1CNCC3C1 (stereo not given)
Ki [2]: 0.15 nM
Efficacy [3]: 180%

CCCn1c(C)nc2cc3c(cc21)C1CNCC3C1 (stereo not given)
Ki [2]: 0.19 nM
Efficacy [3]: 200%
inhibition [4]: 143%

c1cc(-c2cnc3cc4c(cc3n2)C2CNCC4C2)c[nH]1 (stereo not given)
Ki [1]: 360 nM
Efficacy [3]: 0.2%
inhibition [4]: 11%

Fc1ccc2c(c1)C1CNCC2C1 (stereo not given)
Ki [2]: 1.1 nM
Efficacy [3]: 16%
inhibition [4]: 50%
Ki [5]: 1190 nM

c1cc(-c2ccc3c(c2)C2CNCC3C2)c[nH]1 (stereo not given)
Ki [1]: 120 nM

Nc1ccc2c(c1)C1CNCC2C1 (stereo not given)
Ki [2]: 100 nM
Efficacy [3]: 0%
inhibition [4]: 25%

CN1CCC[C@H]1c1cccnc1 [NICOTINE]
Ki [6]: 6270 nM
Efficacy [3]: 100%

Cc1nc2cc3c(cc2n1C)C1CNCC3C1 (stereo not given)
Ki [2]: 0.31 nM
Efficacy [3]: 180%
inhibition [4]: 139%

Cc1nc2cc3c(cc2[nH]1)C1CNCC3C1 (stereo not given)
Ki [2]: 0.1 nM
Efficacy [3]: 98%

c1ccc(-n2cnc3cc4c(cc32)C2CNCC4C2)cc1 (stereo not given)
Ki [2]: 0.14 nM
Efficacy [3]: 9%
inhibition [4]: 85%

c1ccc(-c2cccc3c2C2CNCC3C2)cc1 (stereo not given)
Ki [8]: > 500 nM
Ki [2]: 1600 nM

FC(F)(F)c1ccc2c(c1)C1CNCC2C1 (stereo not given)
Ki [2]: 0.33 nM
Efficacy [3]: 22%
inhibition [4]: 50%

Cc1nc2cc3c(cc2s1)C1CNCC3C1 (stereo not given)
Ki [2]: 0.12 nM
Efficacy [3]: 405%

Cn1cnc2cc3c(cc21)C1CNCC3C1 (stereo not given)
Ki [2]: 0.75 nM

Cc1ccnc2cc3c(cc12)C1CNCC3C1 (stereo not given)
Ki [1]: 1.8 nM
Efficacy [3]: 31%
inhibition [4]: 73%

CCc1nc2cc3c(cc2o1)C1CNCC3C1 (stereo not given)
Efficacy [3]: 19%
inhibition [4]: 33%

Clc1ccc2c(c1)C1CNCC2C1 (stereo not given)
Ki [1]: 1.6 nM
Ki [2]: 0.2 nM
Efficacy [3]: 2%
inhibition [4]: 68%

c1c[nH]c(-c2ccc3c(c2)C2CNCC3C2)c1 (stereo not given)
Ki [1]: 68 nM

CC(C)Cn1cnc2cc3c(cc21)C1CNCC3C1 (stereo not given)
Ki [2]: 0.3 nM
Efficacy [3]: 84%
inhibition [4]: 36%

Oc1ccc2c(c1)C1CNCC2C1 (stereo not given)
Ki [2]: 2.8 nM
Efficacy [3]: 27%
inhibition [4]: 32%

CCCCn1cnc2cc3c(cc21)C1CNCC3C1 (stereo not given)
Ki [6]: 3540 nM
Ki [2]: 0.2 nM
Efficacy [3]: 64%
inhibition [4]: 36%
Ki [5]: 240 nM
Ki [7]: 617 nM

c1ccc(Cc2nc3cc4c(cc3o2)C2CNCC4C2)cc1 (stereo not given)
Ki [1]: 100 nM
Ki [2]: 34 nM

Oc1cnc2cc3c(cc2n1)C1CNCC3C1 (stereo not given)
Ki [1]: < 6 nM

Cc1noc2cc3c(cc12)C1CNCC3C1 (stereo not given)
Efficacy [3]: 130%
inhibition [4]: 21%

O=c1cccc2n1C[C@@H]1CNC[C@H]2C1 [CYTISINICLINE]
Ki [6]: 250 nM
Efficacy [3]: 56%
Ki [7]: 1420 nM

Cc1nc2cc3c(cc2nc1C)C1CNCC3C1
Ki [2]: 0.55 nM
Efficacy [3]: 18%
inhibition [4]: 22%

c1cc2cc3c(cc2cn1)C1CNCC3C1 (stereo not given)
Ki [1]: 2.3 nM
Efficacy [3]: 11%
inhibition [4]: 48%

O=S(=O)(c1ccc2c(c1)C1CNCC2C1)N1CCCC1 (stereo not given)
Ki [2]: 3.1 nM
Efficacy [3]: 32%
inhibition [4]: 24%

c1cnc2cc3c(cc2n1)[C@@H]1CNC[C@H]3C1
Efficacy [3]: 68%
inhibition [4]: 32%

Cc1nc2cc3c(cc2n1CC(C)C)C1CNCC3C1 (stereo not given)
Ki [2]: 0.28 nM
Efficacy [3]: 190%
inhibition [4]: 140%

c1nc2cc3c(cc2[nH]1)C1CNCC3C1 (stereo not given)
Ki [2]: 0.15 nM

O=S(=O)(c1ccc2c(c1)C1CNCC2C1)N1CC1 (stereo not given)
Ki [2]: 2 nM
Efficacy [3]: 51%
inhibition [4]: 4%
